The source made the active and inactive calls. The calls are words filed in the database; no cut-off is given here.
What was measured:
[1] = biological target: T1, Proteasomal ubiquitin receptor ADRM1/Bromodomain-containing protein 4 (Homo sapiens, UniProt O60885+Q16186); experiment: BYETAC activity at 26S proteasome subunit Rpn13/BRD4 in human Ramos cells assessed as induction of BRD4 degradation by measuring remaining activity at 10 nM incubated for 18 hrs by Western blot analysis (reference value: 100 %); assay type: cell-based
[2] = biological target: T1, Proteasomal ubiquitin receptor ADRM1/Bromodomain-containing protein 4; experiment: BYETAC activity at 26S proteasome subunit Rpn13/BRD4 in human Ramos cells assessed as induction of BRD4 degradation by measuring remaining activity at 500 nM incubated for 18 hrs by Western blot analysis (reference value: 100 %); assay type: cell-based
[3] = biological target: T1, Proteasomal ubiquitin receptor ADRM1/Bromodomain-containing protein 4; experiment: BYETAC activity at 26S proteasome subunit Rpn13/BRD4 in human Ramos cells assessed as induction of BRD4 degradation by measuring remaining activity at 100 nM incubated for 18 hrs by Western blot analysis (reference value: 100 %); assay type: cell-based
[4] = biological target: T2, Proteasomal ubiquitin receptor ADRM1/Tyrosine-protein kinase BTK (Homo sapiens) (UniProt Q06187+Q16186); experiment: BYETAC activity at 26S proteasome subunit Rpn13/BTK in human Ramos cells assessed as induction of BTK degradation at 1 to 25 uM incubated for 18 hrs by Western blot analysis; assay type: cell-based; details: dose 1-25 µM
[5] = biological target: Proteasomal ubiquitin receptor ADRM1/Glycogen synthase kinase-3 beta (Homo sapiens) (UniProt P49841+Q16186); experiment: Halo-BYETAC activity at 26S proteasome subunit Rpn13/Halo-tagged GSK3beta (unknown origin) transfected in human U87 cells assessed as induction of Halo-tagged GSK3beta degradation at 1 to 10 uM incubated for 18 hrs by Western blot analysis; assay type: cell-based; details: dose 1-10 µM
Ramos = experiment: Antiproliferative activity against human Ramos cells assessed as reduction in cell viability incubated for 48 hrs; assay type: functional, cell-based
[6] = biological target: T1, Proteasomal ubiquitin receptor ADRM1/Bromodomain-containing protein 4; experiment: BYETAC activity at 26S proteasome subunit Rpn13/BRD4 in human Raji cells assessed as induction of BRD4 degradation by measuring remaining activity at 100 nM incubated for 18 hrs by Western blot analysis (reference value: 100 %); assay type: cell-based
[7] = biological target: T1, Proteasomal ubiquitin receptor ADRM1/Bromodomain-containing protein 4; experiment: BYETAC activity at 26S proteasome subunit Rpn13/BRD4 in human U87 cells assessed as induction of BRD4 degradation by measuring remaining activity at 500 nM incubated for 18 hrs by Western blot analysis (reference value: 100 %); assay type: cell-based
[8] = biological target: T1, Proteasomal ubiquitin receptor ADRM1/Bromodomain-containing protein 4; experiment: BYETAC activity at 26S proteasome subunit Rpn13/BRD4 in human U87 cells assessed as induction of BRD4 degradation by measuring remaining activity at 10 nM incubated for 18 hrs by Western blot analysis (reference value: 100 %); assay type: cell-based
[9] = biological target: T1, Proteasomal ubiquitin receptor ADRM1/Bromodomain-containing protein 4; experiment: BYETAC activity at 26S proteasome subunit Rpn13/BRD4 in human U87 cells assessed as induction of BRD4 degradation by measuring remaining activity at 100 nM incubated for 18 hrs by Western blot analysis (reference value: 100 %); assay type: cell-based
[10] = biological target: T1, Proteasomal ubiquitin receptor ADRM1/Bromodomain-containing protein 4; experiment: BYETAC activity at 26S proteasome subunit Rpn13/BRD4 in human Raji cells assessed as induction of BRD4 degradation by measuring remaining activity at 500 nM incubated for 18 hrs by Western blot analysis (reference value: 100 %); assay type: cell-based
[11] = biological target: T1, Proteasomal ubiquitin receptor ADRM1/Bromodomain-containing protein 4; experiment: BYETAC activity at 26S proteasome subunit Rpn13/BRD4 in human Ramos cells assessed as induction of BRD4 degradation incubated for 18 hrs by Western blot analysis; assay type: cell-based
[12] = biological target: T1, Proteasomal ubiquitin receptor ADRM1/Bromodomain-containing protein 4; experiment: BYETAC activity at 26S proteasome subunit Rpn13/BRD4 in human Raji cells assessed as induction of BRD4 degradation by measuring remaining activity at 10 nM incubated for 18 hrs by Western blot analysis (reference value: 100 %); assay type: cell-based
[13] = biological target: T2, Proteasomal ubiquitin receptor ADRM1/Tyrosine-protein kinase BTK (Homo sapiens); experiment: BYETAC activity at 26S proteasome subunit Rpn13/BTK in human Ramos cells assessed as induction of BTK degradation by measuring remaining activity at 1 uM incubated for 18 hrs by Western blot analysis (reference value: 100 %); assay type: cell-based
[14] = biological target: T2, Proteasomal ubiquitin receptor ADRM1/Tyrosine-protein kinase BTK (Homo sapiens); experiment: BYETAC activity at 26S proteasome subunit Rpn13/BTK in human Ramos cells assessed as induction of BTK degradation by measuring remaining activity at 0.5 uM incubated for 18 hrs by Western blot analysis (reference value: 100 %); assay type: cell-based
[15] = biological target: T2, Proteasomal ubiquitin receptor ADRM1/Tyrosine-protein kinase BTK (Homo sapiens); experiment: BYETAC activity at 26S proteasome subunit Rpn13/BTK in human Ramos cells assessed as induction of BTK degradation by measuring remaining activity at 25 uM incubated for 18 hrs by Western blot analysis (reference value: 100 %); assay type: cell-based
[16] = biological target: T2, Proteasomal ubiquitin receptor ADRM1/Tyrosine-protein kinase BTK (Homo sapiens); experiment: BYETAC activity at 26S proteasome subunit Rpn13/BTK in human Ramos cells assessed as induction of BTK degradation by measuring remaining activity at 10 uM incubated for 18 hrs by Western blot analysis (reference value: 100 %); assay type: cell-based
[17] = biological target: T1, Proteasomal ubiquitin receptor ADRM1/Bromodomain-containing protein 4; experiment: Binding affinity to 26S proteasome subunit Rpn13/BRD4 in human Ramos cells assessed as ternary complex formation at 5 uM incubated for 3 hrs by co-immunoprecipitation analysis; assay type: cell-based
[18] = biological target: T1, Proteasomal ubiquitin receptor ADRM1/Bromodomain-containing protein 4; experiment: BYETAC activity at 26S proteasome subunit Rpn13/BRD4 in human Ramos cells assessed as induction of BRD4 degradation at 100 nM incubated for 18 hrs in presence of MG132 by Western blot analysis; assay type: cell-based
[19] = biological target: Proteasomal ubiquitin receptor ADRM1 (Homo sapiens) (UniProt Q16186); experiment: Induction of Rpn-13 stabilization in human Ramos cells assessed as increase in Rpn-13 level at 5 uM incubated for 3 hrs by co-immunoprecipitation analysis; assay type: cell-based
[20] = biological target: T1, Proteasomal ubiquitin receptor ADRM1/Bromodomain-containing protein 4; experiment: Induction of BRD4 degradation in human U87 cells transfected with Rpn-13 siRNA at 100 nM incubated for 18 hrs by Western blot analysis; assay type: cell-based
[21] = biological target: Proteasomal ubiquitin receptor ADRM1/Bromodomain-containing protein 2 (Homo sapiens) (UniProt P25440+Q16186); experiment: BYETAC activity at 26S proteasome subunit Rpn13/BRD2 in human Ramos cells assessed as induction of BRD2 degradation at 100 nM incubated for 18 hrs by Western blot analysis; assay type: cell-based
[22] = biological target: T1, Proteasomal ubiquitin receptor ADRM1/Bromodomain-containing protein 4; experiment: BYETAC activity at 26S proteasome subunit Rpn13/BRD4 in human Ramos cells assessed as induction of BRD4 degradation at 500 nM preincubated with TCL1 for 1 hrs followed by compound addition and measured after 18 hrs by competitive Western blot analysis; assay type: cell-based
[23] = biological target: T1, Proteasomal ubiquitin receptor ADRM1/Bromodomain-containing protein 4; experiment: BYETAC activity at 26S proteasome subunit Rpn13/BRD4 in human Ramos cells assessed as induction of BRD4 degradation by measuring remaining activity at 100 nM incubated for 18 hrs in presence of TAK-243 by Western blot analysis relative to control; assay type: cell-based
[24] = biological target: T1, Proteasomal ubiquitin receptor ADRM1/Bromodomain-containing protein 4; experiment: BYETAC activity at 26S proteasome subunit Rpn13/BRD4 in human Ramos cells assessed as induction of BRD4 degradation at 500 nM preincubated with JQ1 for 1 hrs followed by compound addition and measured after 18 hrs by competitive Western blot analysis; assay type: cell-based
[25] = biological target: T1, Proteasomal ubiquitin receptor ADRM1/Bromodomain-containing protein 4; experiment: BYETAC activity at 26S proteasome subunit Rpn13/BRD4 in human U87 cells assessed as induction of BRD4 degradation at 500 nM measured up to 72 hrs by Western blot analysis; assay type: cell-based
[26] = biological target: Proteasomal ubiquitin receptor ADRM1/Bromodomain-containing protein 3 (Homo sapiens) (UniProt Q15059+Q16186); experiment: BYETAC activity at 26S proteasome subunit Rpn13/BRD3 in human Ramos cells assessed as induction of BRD3 degradation at 100 nM incubated for 18 hrs by Western blot analysis; assay type: cell-based
[27] = biological target: T1, Proteasomal ubiquitin receptor ADRM1/Bromodomain-containing protein 4; experiment: Induction of BRD4 degradation in human Ramos cells at 10 to 1000 nM incubated for 18 hrs by Western blot analysis; assay type: cell-based; details: dose 10-1000 nM

Cc1sc2c(c1C)C(c1ccc(Cl)cc1)=N[C@@H](CC(=O)NCCOCCOCCOCCOCCOCCNC(=O)CC1Sc3nnc(Cc4ccc(Br)cc4)n3N=C1c1ccc(Cl)cc1)c1nnc(C)n1-2 (stereo not given in full)
Activity [1]: 92%
Activity [2]: 60%
Activity [3]: 87%

Nc1ncnc2c1c(-c1ccc(Oc3ccccc3)cc1)nn2[C@H]1CCCN(C(=O)COCCOCCOCCOCCNC(=O)CC2Sc3nnc(Cc4ccc(Br)cc4)n3N=C2c2ccc(Cl)cc2)C1 (stereo not given in full)
Activity [4]: inactive

Cc1sc2c(c1C)C(c1ccc(Cl)cc1)=N[C@@H](CC(=O)NCCOCCOCCOCCOCCOCCOCCOCCNC(=O)CC1Sc3nnc(Cc4ccc(Br)cc4)n3N=C1c1ccc(Cl)cc1)c1nnc(C)n1-2 (stereo not given in full)
Activity [1]: 107%
Activity [2]: 80%
Activity [3]: 100%

ClCCCCCCNCCOCCOCCNCC1Sc2nnc(Cc3ccc(Br)cc3)n2N=C1c1ccc(Cl)cc1 (stereo not given)
Activity [5]: Active

Cc1sc2c(c1C)C(c1ccc(Cl)cc1)=N[C@@H](CC(=O)Nc1ccc(OCCOCCOCCOCCNc3cccc4c3C(=O)N(C3CCC(=O)NC3=O)C4=O)cc1)c1nnc(C)n1-2 (stereo not given in full)
IC50 (Ramos): 1.9 nM

Cc1sc2c(c1C)C(c1ccc(Cl)cc1)=N[C@@H](CC(=O)NCCOCCOCCOCCNC(=O)CC1Sc3nnc(Cc4ccc(Br)cc4)n3N=C1c1ccc(Cl)cc1)c1nnc(C)n1-2 (stereo not given in full)
Activity [1]: 111%
Activity [6]: 77%
Activity [7]: 36%
Activity [8]: 83%
Activity [9]: 53%
Activity [2]: 35%
Activity [10]: 68%
Activity [3]: 69%
DC50 [11]: ~500 nM
Activity [12]: 78%

Nc1ncnc2c1c(-c1ccc(Oc3ccccc3)cc1)nn2[C@H]1CCCN(C(=O)CCC(=O)NCCOCCOCCOCCOCCOCCOCCOCCOCCNC(=O)CC2Sc3nnc(Cc4ccc(Br)cc4)n3N=C2c2ccc(Cl)cc2)C1 (stereo not given in full)
Activity [13]: 72%
Activity [14]: 97%
Activity [15]: 6%
Activity [16]: 3%

Cc1sc2c(c1C)C(c1ccc(Cl)cc1)=N[C@@H](CC(=O)NCCOCCOCCOCCOCCNC(=O)CC1Sc3nnc(Cc4ccc(Br)cc4)n3N=C1c1ccc(Cl)cc1)c1nnc(C)n1-2 (stereo not given in full)
Activity [1]: 91%
Activity [17]: Active
Activity [18]: inactive
IC50 (Ramos): 30.5 nM
Activity [19]: Active
Activity [20]: inactive
Activity [21]: Active
Activity [22]: inactive
Activity [23]: 40%
Activity [24]: inactive
Activity [6]: 72%
Activity [7]: 20%
Activity [8]: 66%
Activity [9]: 36%
Activity [2]: 33%
Activity [25]: Active
Activity [10]: 62%
Activity [3]: 55%
DC50 [11]: ~500 nM
Activity [12]: 95%
Activity [26]: Active

O=C(O)CC1Sc2nnc(Cc3ccc(Br)cc3)n2N=C1c1ccc(Cl)cc1 (stereo not given)
Activity [27]: inactive

Source: ChEMBL document CHEMBL6134889, “ByeTAC: Bypassing E-Ligase-Targeting Chimeras for Direct Proteasome Degradation” (J Med Chem, 2025)
